Laboratory results reported in the supplement of paper PMC11208160.

Assay: recombinant UMI read abundance after kanamycin selection (control-corrected) (log10(CPM+1)); higher = more efficient recombination; extreme values may be limits of the assay; sequences stand for … in AGTGCAGAGAAAATCGGCCAGTTTTCTCTGCCTGCAGTCCGCATGCCGTGGGACCCCTTGGGTTCTAACCTGTTGCCTAGATTTATGCAGCGGACTGCCTTTCTCCCAAAGTGATAAACCGG…AGGTTGGTTTCACT; site = the 11-nt donor
How it was run: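 For the IS621 bridge recombinase, a pooled Escherichia coli screen tested donor and donor-binding-loop pairs. Cells received the pair library together with a target plasmid encoding a fixed target and T7-inducible recombinase, then went onto IPTG (0.07 mM) plus kanamycin or unselected plates in duplicate. After PCR across the donor–target junction and sequencing, recombinant UMI counts were normalized to CPM, averaged, and scaled by control-derived factors. Each value is given as log10(CPM+1).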
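Further: IS621 bridge recombinase in Escherichia coli cells against a fixed T5 target plasmid.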

Sequence	recombinant UMI read abundance (log10)
CAGTCGACATGGACCGGTTTTCCCGGTAATCCGTATTTGGA (site CAGTCGACTAC)	0.0073
CAGTCGACATGGACCGGTTTTCCCGGTAATCCGTATTTGGA (site CAGTCGACTCC)	0.0138
CAGTCGACATGGACCGGTTTTCCCGGTAATCCGTATTTGGA (site CAGTCGACTGC)	0.00544
CAGTCGACATGGACCGGTTTTCCCGGTAATCCGTATTTGGA (site CAGTCGACTTC)	0.0121
CAGTCGACATGGACCGGTTTTCCCGGTAATCCGTATTTGGG (site AAGTCGACTCC)	0.0145
CAGTCGACATGGACCGGTTTTCCCGGTAATCCGTATTTGGG (site CAATCGACTCC)	0.0099
CAGTCGACATGGACCGGTTTTCCCGGTAATCCGTATTTGGG (site CACTCGACTCC)	0.0212
CAGTCGACATGGACCGGTTTTCCCGGTAATCCGTATTTGGG (site CAGACGACTCC)	0.083
CAGTCGACATGGACCGGTTTTCCCGGTAATCCGTATTTGGG (site CAGCCGACTCC)	0.00881
CAGTCGACATGGACCGGTTTTCCCGGTAATCCGTATTTGGG (site CAGGCGACTCC)	0
CAGTCGACATGGACCGGTTTTCCCGGTAATCCGTATTTGGG (site CAGTAGACTCC)	0.34
CAGTCGACATGGACCGGTTTTCCCGGTAATCCGTATTTGGG (site CAGTCAACTCC)	0.0265
CAGTCGACATGGACCGGTTTTCCCGGTAATCCGTATTTGGG (site CAGTCCACTCC)	0.0168
CAGTCGACATGGACCGGTTTTCCCGGTAATCCGTATTTGGG (site CAGTCGACTAC)	0.0109
CAGTCGACATGGACCGGTTTTCCCGGTAATCCGTATTTGGG (site CAGTCGACTCA)	0.00973
CAGTCGACATGGACCGGTTTTCCCGGTAATCCGTATTTGGG (site CAGTCGACTCC)	0.297
CAGTCGACATGGACCGGTTTTCCCGGTAATCCGTATTTGGG (site CAGTCGACTCG)	0
CAGTCGACATGGACCGGTTTTCCCGGTAATCCGTATTTGGG (site CAGTCGACTCT)	0.314
CAGTCGACATGGACCGGTTTTCCCGGTAATCCGTATTTGGG (site CAGTCGACTGC)	0
CAGTCGACATGGACCGGTTTTCCCGGTAATCCGTATTTGGG (site CAGTCGACTTC)	0.00419
CAGTCGACATGGACCGGTTTTCCCGGTAATCCGTATTTGGG (site CAGTCGCCTCC)	0.0239
CAGTCGACATGGACCGGTTTTCCCGGTAATCCGTATTTGGG (site CAGTCGGCTCC)	0.0315
CAGTCGACATGGACCGGTTTTCCCGGTAATCCGTATTTGGG (site CAGTCGTCTCC)	0.151
CAGTCGACATGGACCGGTTTTCCCGGTAATCCGTATTTGGG (site CAGTCTACTCC)	0.0277
CAGTCGACATGGACCGGTTTTCCCGGTAATCCGTATTTGGG (site CAGTGGACTCC)	0.0181

Sequence	recombinant UMI read abundance (log10)
CAGTCGACATGGACCGGTTTTCCCGGTAATCCGTATTTGGG (site CAGTTGACTCC)	0.0173
CAGTCGACATGGACCGGTTTTCCCGGTAATCCGTATTTGGG (site CATTCGACTCC)	0.0119
CAGTCGACATGGACCGGTTTTCCCGGTAATCCGTATTTGGG (site CCGTCGACTCC)	0.00307
CAGTCGACATGGACCGGTTTTCCCGGTAATCCGTATTTGGG (site CGGTCGACTCC)	0.0115
CAGTCGACATGGACCGGTTTTCCCGGTAATCCGTATTTGGG (site CTGTCGACTCC)	0.0261
CAGTCGACATGGACCGGTTTTCCCGGTAATCCGTATTTGGG (site GAGTCGACTCC)	0.0417
CAGTCGACATGGACCGGTTTTCCCGGTAATCCGTATTTGGG (site TAGTCGACTCC)	0.01
CAGTCTACATGGACCGGTTTTCCCGGTAATCCGTATTTGGG (site CAGTCAACTCC)	0.0237
CAGTCTACATGGACCGGTTTTCCCGGTAATCCGTATTTGGG (site CAGTCCACTCC)	0.0106
CAGTCTACATGGACCGGTTTTCCCGGTAATCCGTATTTGGG (site CAGTCGACTCC)	0.00653
CAGTCTACATGGACCGGTTTTCCCGGTAATCCGTATTTGGG (site CAGTCTACTCC)	0.0109
CAGTTATCATGGACCGGTTTTCCCGGTAATCCGTATTTGTG (site CAGTTATCTCA)	3.18
CAGTTGGCATGGACCGGTTTTCCCGGTAATCCGTATTTGTG (site CAGTTGGCTCA)	1.47
CATAACGCATGGACCGGTTTTCCCGGTAATCCGTATTTGGG (site CATAACGCTCC)	0.802
CATAACGCATGGACCGGTTTTCCCGGTAATCCGTATTTGTG (site TGAGGGCCTGC)	0
CATAGCCCATGGACCGGTTTTCCCGGTAATCCGTATTTGCC (site CATAGCCCTGG)	0
CATAGGGCATGGACCGGTTTTCCCGGTAATCCGTATTTGTC (site CATAGGGCTGA)	2.5
CATATCCCATGGACCGGTTTTCCCGGTAATCCGTATTTGCG (site CATATCCCTCG)	0.847
CATATCTCATGGACCGGTTTTCCCGGTAATCCGTATTTGAC (site CATATCTCTGT)	2.52
CATATTCCATGGACCGGTTTTCCCGGTAATCCGTATTTGCT (site CATATTCCTAG)	0
CATCAGTCATGGACCGGTTTTCCCGGTAATCCGTATTTGAT (site CATCAGTCTAT)	2.04
CATCATGCATGGACCGGTTTTCCCGGTAATCCGTATTTGTT (site CATCATGCTAA)	1.58
CATCCGGCATGGACCGGTTTTCCCGGTAATCCGTATTTGTC (site CATCCGGCTGA)	0.293
CATCGTTCATGGACCGGTTTTCCCGGTAATCCGTATTTGCA (site CATCGTTCTTG)	2.25
CATCTCGCATGGACCGGTTTTCCCGGTAATCCGTATTTGCA (site CATCTCGCTTG)	0.985

Sequence	recombinant UMI read abundance (log10)
CATCTGCCATGGACCGGTTTTCCCGGTAATCCGTATTTGCC (site CATCTGCCTGG)	0
CATGCAGCATGGACCGGTTTTCCCGGTAATCCGTATTTGAG (site CATGCAGCTCT)	1.51
CATGCCCCATGGACCGGTTTTCCCGGTAATCCGTATTTGGG (site CATGCCCCTCC)	0.00831
CATGGAACATGGACCGGTTTTCCCGGTAATCCGTATTTGTT (site CATGGAACTAA)	1.85
CATGGAACATGGACCGGTTTTCCCGGTAATCCGTATTTGTT (site CCTGGAACTAA)	0.00373
CATGGAACATGGACCGGTTTTCCCGGTAATCCGTATTTGTT (site CGTGGAACTAA)	0.0146
CATGGAACATGGACCGGTTTTCCCGGTAATCCGTATTTGTT (site CTTGGAACTAA)	0.00575
CATGGACCATGGACCGGTTTTCCCGGTAATCCGTATTTGGG (site CATGGACCTCC)	0.0171
CATGTAACATGGACCGGTTTTCCCGGTAATCCGTATTTGGG (site CATGTAACTCC)	0.209
CATTAAACATGGACCGGTTTTCCCGGTAATCCGTATTTGCC (site CATTAAACTGG)	1.51
CATTACCCATGGACCGGTTTTCCCGGTAATCCGTATTTGCC (site CATTACCCTGG)	0
CATTAGACATGGACCGGTTTTCCCGGTAATCCGTATTTGAG (site CATTAGACTCT)	1.89
CATTAGACATGGACCGGTTTTCCCGGTAATCCGTATTTGAG (site CCTTAGACTCT)	0.769
CATTAGACATGGACCGGTTTTCCCGGTAATCCGTATTTGAG (site CGTTAGACTCT)	0.492
CATTAGACATGGACCGGTTTTCCCGGTAATCCGTATTTGAG (site CTTTAGACTCT)	0.0129
CATTAGGCATGGACCGGTTTTCCCGGTAATCCGTATTTGCT (site CATTAGGCTAG)	1.54
CATTATGCATGGACCGGTTTTCCCGGTAATCCGTATTTGGA (site AATTATGCTTC)	0.0205
CATTATGCATGGACCGGTTTTCCCGGTAATCCGTATTTGGA (site CATTATGCTTC)	1.07
CATTATGCATGGACCGGTTTTCCCGGTAATCCGTATTTGGA (site GATTATGCTTC)	0.00887
CATTATGCATGGACCGGTTTTCCCGGTAATCCGTATTTGGA (site TATTATGCTTC)	0.208
CATTCAGCATGGACCGGTTTTCCCGGTAATCCGTATTTGCA (site CATTCAGCTTG)	1.05
CATTCATCATGGACCGGTTTTCCCGGTAATCCGTATTTGCT (site CATTCATCTAG)	1.4
CATTCATCATGGACCGGTTTTCCCGGTAATCCGTATTTGCT (site CGATCATCTAG)	0.633
CATTCGCCATGGACCGGTTTTCCCGGTAATCCGTATTTGAG (site CATTCGCCTCT)	0.00436
CATTCGGCATGGACCGGTTTTCCCGGTAATCCGTATTTGCA (site CATTCGGCTTG)	1.15
